{"source": "patent US4314989A", "about": "“Methionine sulfoxide amflioration of acetaminophen toxicity” (priority 1980, dated 1982)", "key": {"[1]": {"test": "Enhancement of acetaminophen toxicity by BHT and protection by methionine sulfoxide in hamsters", "type": "in vivo, hamster", "conditions": "hamster, in vivo, ip; i.p. mixture of 300 mg/kg acetaminophen and 600 mg/kg BHT; within 24 hours; read-out: deaths", "procedure": "(§1) Hamsters weighing about 70 gm. each were divided into five groups of animals. An aqueous solution (ca. 0.7 ml) of […]. (600 mg/kg) of acetaminophen and an amount of methionine sulfoxide listed in the table below, was administered intraperitoneally to each hamster. All deaths occurred within 48 hours. The survivors all were alive one week later when examined again.\n(§2) Following the above procedure, hamsters were given i.p. either 300 mg/kg of acetaminophen or 600 mg/kg BHT."}, "[2]": {"system": "hamsters", "test": "Enhancement of acetaminophen toxicity by BHT and protection by methionine sulfoxide in hamsters", "type": "in vivo, hamster", "procedure": "as §1, §2"}, "[3]": {"system": "acetaminophen hepatotoxicity", "test": "Effect of BHT and BHA on hepatotoxicity of acetaminophen (general finding)", "conditions": "in vivo", "description": "Because the general population consumes large amounts of these chemicals daily, because of their presence in a wide variety of food products, the likelihood of an increased incidence of hepatoxicity in persons taking repeated dosages of acetaminophen is self-evident."}, "[4]": {"system": "acetaminophen hepatotoxicity", "conditions": "cited from earlier work; for effect on acetaminophen hepatotoxicity: J. Kelleher et al."}, "[5]": {"system": "man", "conditions": "vitamin C with acetaminophen, cited from earlier work"}, "[6]": {"system": "man and experimental animals", "conditions": "cited from earlier work"}, "[7]": {"system": "hamsters", "test": "animal or person", "type": "in vivo, hamster", "conditions": "for % Deaths: deaths within 48 hours; for hamsters protected from the otherwise lethal dosage of acetaminophen: acetaminophen 600 mg/kg i.p.", "procedure": "as §1"}, "[8]": {"system": "hamsters", "test": "Enhancement of acetaminophen toxicity by BHA and protection by methionine sulfoxide in hamsters", "type": "in vivo, hamster", "procedure": "Hamsters weighing about 70 gm. each were divided into five groups of animals. […] All deaths occurred within 48 hours. The survivors all were alive one week later when examined again.\nMethionine sulfoxide protects the hamsters against the enhanced acetaminophen toxicity up to dosages of about 200 mg/kg of BHA."}, "[9]": {"system": "inbred mice", "conditions": "suggested for humans from studies with inbred mice; cited from earlier work"}, "[10]": {"system": "humans", "conditions": "in vivo; cited from earlier work"}, "[11]": {"system": "vitamin E deficient rats", "conditions": "cited from earlier work"}, "[12]": {"system": "hepatotoxicity after an overdose of acetaminophen", "conditions": "administered within 16 hours after an overdose of acetaminophen; clinical study; cited from earlier work"}, "[13]": {"system": "mice", "conditions": "administered up to one hour after acute toxic amounts of acetaminophen; cited from earlier work"}, "[14]": {"system": "mice", "conditions": "cited from earlier work"}, "[15]": {"conditions": "acetaminophen 300 mg/kg i.p. alone"}, "[16]": {"conditions": "i.p. mixture of 300 mg/kg acetaminophen and 100 mg/kg BHA, all hamsters"}}, "data": [{"compound": "Cc1cc(C(C)(C)C)c(O)c(C(C)(C)C)c1", "note": "[BHT, butylated hydroxytoluene]", "values": [{"measurement": "mortality at 24 h", "setting": "[1]", "value": 100, "unit": "%"}, {"measurement": "deaths", "setting": "[2]; BHT 600 mg/kg i.p. alone", "value": "No deaths occurred"}, {"measurement": "enhancement of acetaminophen toxicity", "setting": "[2]; i.p. mixture of 300 mg/kg acetaminophen and 600 mg/kg BHT", "value": "profound enchancement of acetaminophen toxicity"}, {"measurement": "effect on hepatotoxicity of acetaminophen", "setting": "[3]", "value": "profoundly enhance its hepatotoxicity"}]}, {"compound": "O=C1O[C@H]([C@@H](O)CO)C(O)=C1O", "note": "[vitamin C, ascorbic acid]", "values": [{"measurement": "protection against the hepatotoxic effects of acetaminophen", "setting": "[4]; Raghuram et al.", "value": "may provide such protection"}, {"measurement": "apparent half-life of drug (acetaminophen)", "setting": "[5]; by rate of secretion in the urine", "value": "did not affect the apparent half-life"}, {"measurement": "excretion rate of acetaminophen sulfate", "setting": "[5]", "value": "rapid and pronounced decrease"}]}, {"compound": "NCCS", "note": "[cysteamine]", "values": [{"measurement": "protection against the hepatotoxicity of acetaminophen", "setting": "[6]", "value": "varying degrees of protection"}]}, {"compound": "[Se]", "note": "[selenium]", "values": [{"measurement": "protection against the hepatotoxicity of acetaminophen", "setting": "[6]", "value": "varying degrees of protection"}]}, {"compound": "CC(=O)Nc1ccc(O)cc1", "note": "[acetaminophen]", "values": [{"measurement": "% Deaths", "setting": "[7]; acetaminophen 600 mg/kg i.p. alone (methionine sulfoxide 0), 17 animals", "value": 94, "unit": "%"}, {"measurement": "deaths", "setting": "[2]; [15]", "value": "No deaths occurred"}, {"measurement": "deaths", "setting": "[8]; [15]", "value": "no deaths occurred"}, {"measurement": "cataracts", "setting": "[9]", "value": "can cause cataracts in humans"}, {"measurement": "hepatic necrosis", "setting": "[10]", "value": "can cause massive hepatic necrosis"}]}, {"compound": "CCCOC(=O)c1cc(O)c(O)c(O)c1", "note": "[propyl gallate]", "values": [{"measurement": "effect on acetaminophen hepatotoxicity", "setting": "[4]", "value": "reduce hepatotoxicity"}]}, {"compound": "Cc1c(C)c2c(c(C)c1O)CCC(C)(CCCC(C)CCCC(C)CCCC(C)C)O2", "note": "(stereo not drawn) [vitamin E, α-tocopherol]", "values": [{"measurement": "protection against the hepatotoxicity of acetaminophen", "setting": "[6]", "value": "varying degrees of protection"}, {"measurement": "protection against the hepatotoxic effects of acetaminophen", "setting": "[11]", "value": "provides such protection"}, {"measurement": "effect on acetaminophen hepatotoxicity", "setting": "[4]", "value": "reduce hepatotoxicity"}]}, {"compound": "COc1ccc(O)c(C(C)(C)C)c1", "note": "[BHA, butylated hydroxyanisole]", "values": [{"measurement": "deaths", "setting": "[8]; BHA 100-300 mg/kg i.p. alone", "value": "no deaths occurred"}, {"measurement": "incidence of deaths", "setting": "[8]; higher amounts of BHA (than 100 mg/kg) with acetaminophen", "value": "higher incidence of deaths"}, {"measurement": "survival", "setting": "[8]; i.p. mixture of 300 mg/kg acetaminophen and 100 mg/kg BHA", "value": "most survive"}, {"measurement": "coma", "setting": "[8]; [16]", "value": "go into a coma"}, {"measurement": "time to coma", "setting": "[8]; [16]", "value": "15 to 20", "unit": "min"}, {"measurement": "effect on hepatotoxicity of acetaminophen", "setting": "[3]", "value": "profoundly enhance its hepatotoxicity"}]}, {"compound": "CC(=O)N[C@@H](CS)C(=O)O", "note": "[acetylcysteine]", "values": [{"measurement": "prevention of hepatotoxicity", "setting": "[12]", "value": "effective in preventing hepatotoxicity"}]}, {"compound": "dimethylmercaptol", "values": [{"measurement": "protection against the hepatotoxicity of acetaminophen", "setting": "[6]", "value": "varying degrees of protection"}]}, {"compound": "C[S+]([O-])CC[C@H](N)C(=O)O", "note": "(stereo partly drawn) [methionine sulfoxide]", "values": [{"measurement": "ED50", "setting": "[7]; Mesocricetus auratus, ip", "value": "~65", "unit": "mg/kg"}, {"measurement": "% Deaths", "setting": "[7]; methionine sulfoxide 50 mg/kg i.p. with acetaminophen 600 mg/kg, 15 animals", "value": 60, "unit": "%"}, {"measurement": "% Deaths", "setting": "[7]; methionine sulfoxide 100 mg/kg i.p. with acetaminophen 600 mg/kg, 17 animals", "value": 23.5, "unit": "%"}, {"measurement": "hamsters protected from the otherwise lethal dosage of acetaminophen", "setting": "[7]; methionine sulfoxide 100 mg/kg", "value": "over 75%"}, {"measurement": "% Deaths", "setting": "[7]; methionine sulfoxide 200 mg/kg i.p. with acetaminophen 600 mg/kg, 17 animals", "value": 0, "unit": "%"}, {"measurement": "hamsters protected from the otherwise lethal dosage of acetaminophen", "setting": "[7]; methionine sulfoxide 200 mg/kg", "value": "protected all of the hamsters"}, {"measurement": "% Deaths", "setting": "[7]; methionine sulfoxide 400 mg/kg i.p. with acetaminophen 600 mg/kg, 8 animals", "value": 0, "unit": "%"}, {"measurement": "hamsters protected from the otherwise lethal dosage of acetaminophen", "setting": "[7]; methionine sulfoxide 400 mg/kg", "value": "protected all of the hamsters"}, {"measurement": "deaths", "setting": "[2]; methionine sulfoxide 150 mg/kg concurrently with 300 mg/kg acetaminophen and 600 mg/kg BHT", "value": "no deaths occurred"}, {"measurement": "coma produced by the combination of acetaminophen and BHA", "setting": "[8]; methionine sulfoxide treated, survivors", "value": "manifested even in the survivors"}, {"measurement": "dosage of BHA up to which hamsters are protected against the enhanced acetaminophen toxicity", "setting": "[8]; methionine sulfoxide with acetaminophen and BHA, value is BHA dosage (up to about)", "value": "about 200 mg/kg"}]}, {"compound": "N[C@@H](CS)C(=O)O", "note": "[cysteine]", "values": [{"measurement": "protection against the hepatotoxicity of acetaminophen", "setting": "[6]", "value": "varying degrees of protection"}]}, {"compound": "C[S+](C)[O-]", "note": "[Dimethyl sulfoxide]", "values": [{"measurement": "protection against the hepatotoxic effects of acetaminophen", "setting": "[13]", "value": "protect mice against the hepatotoxic effects of acetaminophen"}, {"measurement": "protection against CCl4 hepatotoxicity", "setting": "[14]", "value": "inability of DMSO to protect mice"}]}, {"compound": "CCO", "note": "[alcohol]", "values": [{"measurement": "potentiation of acetaminophen hepatotoxicity", "setting": "[10]", "value": "markedly potentiate the hepatotoxicity"}]}, {"compound": "CSCC[C@H](N)C(=O)O", "note": "[methionine]", "values": [{"measurement": "protection against the hepatotoxicity of acetaminophen", "setting": "[6]", "value": "varying degrees of protection"}]}]}
